Read-outs that look alike come from different tables or passages of the source.

This is an account of results in PMC9376956, “Optimization of Covalent MKK7 Inhibitors via Crude Nanomole-Scale Libraries” (Journal of Medicinal Chemistry, 2022).

Data set [1] concerns phosphorylated c-Jun (p-c-Jun) in U2OS cells. Description: Dose-response western blot of c-Jun phosphorylation in sorbitol-treated U2OS cells. It counts as cell-based. Conditions: sorbitol 0.2 M, read-out: cellular EC50, c-Jun phosphorylation inhibition. The method, then:
U2OS cells were incubated a day before the experiment in a six-well plate. On the day of the experiment, the cells underwent media change and were incubated with the compound containing 0.1% DMSO, or DMSO only, for 80 min. Sorbitol was then added to the concentration of 0.2 M for 40 min, except for an “untreated” well. After 40 min, the cells were harvested using Trypsin B and were washed with ice-cold PBS. The cells were lysed using a mixture of 50 μL of RIPA buffer (Sigma; R0278) and a protease inhibitor (Sigma; P8340) for 20 min, in which every 5 min, the cells undergo a 5 s vortex. After 20 min, cell lysates underwent a 20 min centrifuge at 4 °C at 21,000 rpm. The lysates were then separated from the cell membrane remains. Protein concentration was determined by the BCA analysis, and 35 μg of protein was taken from each sample, supplemented with 4× loading buffer that has 0.02 mM DTT, and heated for 10 min at 70 °C. […] The membrane was washed again with TBS-T three times for 10 min and reincubated with the blocking buffer for 30 min. […] The protocol repeats itself, using an anti-mouse HRP secondary antibody instead.
Quantification was done using ImageJ software.
On the technique in general: A western blot detects proteins with antibodies after separation by electrophoresis.

Details of data set [2]: method as in PMID 30768270. Conditions: human liver microsome; cited from earlier work. (Liver microsomes are vesicles of endoplasmic reticulum, rich in cytochrome P450 enzymes.)
Data set [3] relates to MKK7. To be noted: read-out: in vitro IC50; cited from earlier work.
Data set [4] deals with p-JNK. Set-up: method as in PMID 30768270. Conditions: read-out: EC50 in cells; cited from earlier work.
The target of data set [5] is T1, MKK7 (Homo sapiens, UniProt O14733).
T1 sequence (O14733 117-419 limits assumed): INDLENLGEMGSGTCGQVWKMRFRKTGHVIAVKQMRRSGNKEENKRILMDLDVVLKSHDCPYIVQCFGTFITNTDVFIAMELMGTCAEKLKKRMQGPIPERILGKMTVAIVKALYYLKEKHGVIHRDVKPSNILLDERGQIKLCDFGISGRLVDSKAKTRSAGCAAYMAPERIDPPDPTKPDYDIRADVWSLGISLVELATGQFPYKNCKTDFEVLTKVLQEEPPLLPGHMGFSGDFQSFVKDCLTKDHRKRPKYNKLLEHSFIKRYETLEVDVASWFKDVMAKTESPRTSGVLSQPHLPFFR
Nature of the data set: Intact protein LC/MS labeling of recombinant MKK7. To be noted: 2 μM compound, 2 μM protein, 5 μM ATP, 5 mM MgCl2, 10 min, 4 °C.

Data set [6] addresses T2, MKK7 (Homo sapiens, UniProt O14733).
T2 construct: purchased Nanosyn, Santa Clara, CA (assay service)
T2 sequence (O14733 1-419): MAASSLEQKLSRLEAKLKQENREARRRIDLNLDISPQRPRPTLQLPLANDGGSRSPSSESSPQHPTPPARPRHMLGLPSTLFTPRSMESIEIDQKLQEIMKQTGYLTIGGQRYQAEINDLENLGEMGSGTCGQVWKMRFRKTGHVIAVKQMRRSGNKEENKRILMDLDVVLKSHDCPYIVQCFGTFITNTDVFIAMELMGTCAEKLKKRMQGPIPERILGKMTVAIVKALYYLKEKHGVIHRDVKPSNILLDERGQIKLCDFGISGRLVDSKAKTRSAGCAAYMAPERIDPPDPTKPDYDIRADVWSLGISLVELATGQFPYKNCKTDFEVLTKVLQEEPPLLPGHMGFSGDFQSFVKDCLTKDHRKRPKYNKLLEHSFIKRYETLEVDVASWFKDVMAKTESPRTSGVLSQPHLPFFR
Description: In vitro kinase activity assay (Nanosyn), MKK7 coupled with inactive JNK1. To be noted: MKK7 1 nM, 2 h preincubation, 2 μM ATP. It counts as biochemical.

Data set [7] concerns the target T3, JNK (Homo sapiens, UniProt P45983).
T3 construct: purchased Nanosyn, Santa Clara, CA (assay service)
Description: Coupled JNK/MKK7 in vitro kinase activity assay, second phase of biphasic curve. The data set is classed as biochemical. Conditions: second sigmoid of biphasic curve, higher concentrations. The method, then: Test compounds were diluted in DMSO to a final concentration that ranged from 10 μM to 0.0565 nM, while the final concentration of DMSO in all assays was kept at 1%. The reference compound, Staurosporine, was tested in a similar manner as a positive control. […] After incubation (17 h), the activity of JNK1 activated by MKK7 was tested in the presence of 30 μM ATP.
Figure S11. A model of compound 1e based on the co-crystal structure of MKK7 in complex with
Note that the side-chains were not remodeled and may in fact adopt
a rotamer that places closer to the hydroxy moiety.
Figure S12. Biphasic in vitro kinase inhibition behavior by alkyne 2. In a coupled JNK/ MKK7 in
Each sigmoidal curve can be
(1 picture or pasted object on this page, not shown here)

Details of data set [8]: method as in PMID 30768270. Conditions: PAMPA; cited from earlier work. Background: The PAMPA barrier holds no transporters, so it reflects passive diffusion.

T3 sequence (P45983 whole entry): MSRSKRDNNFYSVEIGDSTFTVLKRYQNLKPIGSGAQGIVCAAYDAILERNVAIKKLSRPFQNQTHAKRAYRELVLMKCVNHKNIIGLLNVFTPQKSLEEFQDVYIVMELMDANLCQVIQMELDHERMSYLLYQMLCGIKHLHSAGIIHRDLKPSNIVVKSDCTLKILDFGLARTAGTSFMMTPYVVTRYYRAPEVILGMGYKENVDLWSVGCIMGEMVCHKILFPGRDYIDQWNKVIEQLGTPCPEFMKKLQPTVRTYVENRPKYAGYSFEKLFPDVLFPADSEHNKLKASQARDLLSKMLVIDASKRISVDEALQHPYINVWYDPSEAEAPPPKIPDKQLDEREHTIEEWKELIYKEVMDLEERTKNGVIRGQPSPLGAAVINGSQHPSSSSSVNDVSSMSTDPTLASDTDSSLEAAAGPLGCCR

As to `C=CC(=O)N1CCC[C@@H](n2nc(-c3cn(-c4ccc(Cl)cc4O)nn3)c3c(N)ncnc32)C1` [1d, (R)-1-(3-(4-Amino-3-(1-(4-chloro-2-hydroxyphenyl)-1H-1,2,3-triazol-4-yl)-1H-pyrazolo[3,4-d]pyrimidin-1-yl)piperidin-1-yl)prop-2-en-1-one], the EC50 (usually the concentration giving half of the maximal effect) in data set [1] (Homo sapiens, U2OS) worked out at 1090 nM.

In the case of `C=CC(=O)N1CCC[C@@H](n2nc(-c3cn(C[C@H](O)c4ccc(Br)cc4)nn3)c3c(N)ncnc32)C1` [1e, 1-((R)-3-(4-Amino-3-(1-((R)-2-(4-bromophenyl)-2-hydroxy-ethyl)-1H-1,2,3-triazol-4-yl)-1H-pyrazolo[3,4-d]pyrimidin-1-yl)piperidin-1-yl)prop-2-en-1-one], the EC50 in data set [1] (Homo sapiens, U2OS) is above 500 nM.

Turning to `C=CC(=O)N1CCC[C@@H](n2nc(-c3cn(-c4ccc(C(C)=O)cc4)nn3)c3c(N)ncnc32)C1` [1g], the “CL HLM” value in data set [2] was 0.154 µL/min/mg. Moreover, the IC50 (as a rule, the concentration that inhibits the measured activity by half) in data set [3] is 10 nM. In data set [4], the EC50 is around 400 nM. Moreover, the “% MKK7 labeling” value in data set [5] is listed as 89%.

On to `C=CC(=O)N1CCC[C@@H](n2nc(-c3cn(CC(F)(F)c4ccccc4)nn3)c3c(N)ncnc32)C1` [1k, (R)-1-(3-(4-Amino-3-(1-(2,2-difluoro-2-phenylethyl)-1H-1,2,3-triazol-4-yl)-1H-pyrazolo[3,4-d]pyrimidin-1-yl)piperidin-1-yl)prop-2-en-1-one], for which, in data set [1] (Homo sapiens, U2OS), the EC50 is 265 nM. For the same molecule, in data set [6], the IC50 turned out to be 4 nM.

As for `C=CC(=O)Nc1cc(C(=O)NCc2cn([C@@H]3CCCC[C@H]3OC)nn2)cc(-c2n[nH]c3ccccc23)c1` [2a, rac-3-Acrylamido-5-(1H-indazol-3-yl)-N-((1-((trans-)-2-methoxycyclohexyl)-1H-1,2,3-triazol-4-yl)methyl)benzamide], the half-maximal effective concentration (EC50) in data set [1] (Homo sapiens, U2OS) is above 10000 nM. Further, the half-maximal inhibitory concentration (IC50) in data set [6] is 30 nM.

For `C=CC(=O)Nc1cc(C(=O)NCc2cn(-c3ccccc3C)nn2)cc(-c2n[nH]c3ccccc23)c1` [2b, 3-Acrylamido-5-(1H-indazol-3-yl)-N-((1-(o-tolyl)-1H-1,2,3-triazol-4-yl)methyl)benzamide], the EC50 is around 3000 nM in data set [1] (Homo sapiens, U2OS) and below 3000 nM in data set [1].

For the molecule `C=CC(=O)Nc1cc(C(=O)NCc2cn(C3CCC3)nn2)cc(-c2n[nH]c3ccccc23)c1` [2c, 3-Acrylamido-N-((1-cyclobutyl-1H-1,2,3-triazol-4-yl)methyl)-5-(1H-indazol-3-yl)benzamide], in data set [1] (Homo sapiens, U2OS), the EC50 is above 5000 nM.

Regarding `C=CC(=O)Nc1cc(C(=O)NCc2cn(CCOC)nn2)cc(-c2n[nH]c3ccccc23)c1` [2d, 3-Acrylamido-5-(1H-indazol-3-yl)-N-((1-(2-methoxyethyl)-1H-1,2,3-triazol-4-yl)methyl)benzamide], the “% MKK7 labeling” value in data set [5] is 100%.

Regarding `C#Cc1nn([C@@H]2CCCN(C(=O)C=C)C2)c2ncnc(N)c12` [compound 1], in data set [1] (Homo sapiens, U2OS), the EC50 was above 10000 nM. The same molecule displayed an IC50 in data set [6] of 30 nM.

`C#CCNC(=O)c1cc(NC(=O)C=C)cc(-c2n[nH]c3ccccc23)c1` [compound 2, 3-Acrylamido-5-(1H-indazol-3-yl)-N-(prop-2-yn-1-yl)benzamide]: in data set [1] (Homo sapiens, U2OS), the EC50 is below 100 nM. The figures for the IC50 in data set [7] and in data set [6] were 1970 nM and 0.6 nM, respectively. For the same molecule, the “% MKK7 labeling” value in data set [5] is on record as 100%.

With `C=CC(=O)N1CCC[C@@H](n2nc(-c3ccc(Oc4ccccc4)cc3)c3c(N)ncnc32)C1` [ibrutinib], in data set [8], the permeability is reported as 38 %flux.
